Assay results from patent US9272978B2, “Hydroxy acid ester compound of substituted phenol, preparation method and medical use thereof” (West China Hospital, Sichuan University, priority 2010, dated 2016).

Experiments:
[1] = disclosed in WO200213810; cited from earlier work
[2] = disclosed in WO200213810; cited from earlier work; remark: listed apart in the source
Kunming mice = conditions: tail vein injection; for disappearance time of FRR (onset time) / recovery time (recovery of FRR): during determination of ED50; for Median effective dose (ED50), disappearance of forepaw righting reflex: up-and-down method
Description: (§1) 60 Kunming mice with half males and half females were randomly divided into the drug test group (propofol hydroxybutyrate of the present invention) (n=30) and the Diprivan™ control group (positive control drug Diprivan™) (n=30). Median effective doses (ED50) of the substituted phenol hydroxy acid ester and Diprivan™ were determined by the up-and-down method. In the test, the mice were injected with the drugs through the tail veins, with the disappearance of the forepaw righting reflex (FRR) of the mice as a judgment index of the end point of anesthesia; the recovery of FRR of the mice as an index of recovery from anesthesia.
as §1, with “hydroxyvalerate” for “hydroxybutyrate”, “FRR” for “the forepaw righting reflex (FRR)”

[3] = mouse, rat or rabbit plasma, 37° C., 10 mg/ml solution, 0 min to 4 h, HPLC
Description: Three parallel solutions of propofol hydroxybutyrate of Example 1 with a concentration of 10 mg/ml were prepared, added into and mixed with the mouse, rat or rabbit plasma, which was pre-placed in water bath (37° C.), respectively.
Three parallel solutions of propofol hydroxyvalerate of Example 3 with a concentration of 10 mg/ml were prepared, added into and mixed with mouse, rat or rabbit plasma, which was pre-placed in water bath (37° C.), respectively.

CC(C)c1cccc(C(C)C)c1OC(=O)CCC(=O)[O-].[Na+] [propofol succinic acid monoester sodium salt]
water-solubility [1]: high water-solubility
stability in aqueous solution [2]: unstable in aqueous solution

CC(C)c1cccc(C(C)C)c1OC(=O)CCCCO [propofol hydroxyvalerate, propofol ω-hydroxyvalerate]
disappearance time of FRR (onset time) (Kunming mice): 46.1 ± 9.5 s
recovery time (recovery of FRR) (Kunming mice): 256.1 ± 61.2 s
Median effective dose (ED50), disappearance of forepaw righting reflex (Kunming mice): 60 mg/kg
in vitro decomposition in the plasma into the active compound propofol [3]: can be rapidly decomposed into the active compound propofol

CC(C)c1cccc(C(C)C)c1OC(=O)CCCO [propofol hydroxybutyrate, propofol ω-hydroxybutyrate]
anesthetic effect (Kunming mice): definite and reversible anesthetic effect
disappearance time of FRR (onset time) (Kunming mice): 45.3 ± 12.3 s
recovery time (recovery of FRR) (Kunming mice): 235.6 ± 67.9 s
Median effective dose (ED50), disappearance of forepaw righting reflex (Kunming mice): 52 mg/kg
in vitro decomposition in the plasma into the active compound propofol [3]: can be rapidly decomposed into the active compound propofol
